One test concerns HSV-1. The test can be described thus: Antiviral assay: plaque reduction assay, HSV-1 in vero cells. Conditions: Human alphaherpesvirus 1, Vero, 72 h, read-out: ANTIVIRUS EC50. Type of test: cell-based, HSV-1 (vero cells, African green monkey kidney cell). From the text:
These complimentary assays tested the ability of a compound to inhibit the production of new virus and the toxicity of the compound to the host cells. It was important that both assays be performed simultaneously in order to compare the results directly since toxicity may indirectly reduce viral replication.
The antiviral assay was estimated by plaque reduction assay performed by following methods. 1×10^5 of vero cells (African green monkey kidney cell) in 48-well plates were over-night cultured and the medium of this culture was replaced with 200 μl of 2% FBS DMEM containing 2× the desired final cordon of test compounds or no compound as control. The cultures were added 50 μl of 2% FBS DMEM containing with about 50 plaque forming units of HSV-1and next 250 μl of 2% FBS DMEM containing 1% methylcellulose. These infected cultures were incubated at 37° C., 5% CO2 for 3 days until plaques was visible. The cells were fixed and stained simultaneously with 0.025% crystalviolet in 5% formalin solution and plaque were counted. The concentration of test compound which conferred 50% inhibition of plaque formation compared to no compound control was interpolated from the observed data and defined as IC50.
A general note: Plaque reduction counts the foci of infection that form in a cell layer.

Test [1] concerns the target T1, Bovine pancreas α-chymotripsin (Bos taurus, UniProt P00766).
T1 construct: purchased Sigma type II; host or cells: bovine pancreas
The test can be described thus: Chymotripsin assay. The test is classed as biochemical. Particulars: 50 μM compound; 30 minutes pre-incubation; read-out: INHIBITION AT 50 μM CHYMOTRYPSIN (%). As to the method: The chymotripsin assay was modified from the method of Delmar, et al. (Anal. Biochem. 99, 316-320 (1979)). Bovine pancreas α-chymotripsin(type II, Sigma) was dissolved in 0.001 N HCl at 1 mg/ml and further diluted 1/1000 in assay buffer (0.1 M Tris, pH 7.8 containing 0.1 M CaCl2) before use. 0.75 μl of test compound in DMF (or DMF alone), 50 μl of assay buffer and 50 μl of enzyme were added to 96 wells plates, mixed and pre-incubated for 30 minutes at ambient temperature. Reaction was initiated by addition of 50 μl of 0.2 mM N-succinyl-Ala-Ala-Pro-Phe-p-nitroanilide (Sigma; 2 mM in DMSO diluted 1/10 in assay buffer before use). The increase in absorbance at 405 nm was monitored for 3 minutes with BIO-RAD model 3550 microplate-reader.

In test [2] the target is T2, HSV-1 protease (assemblin) (Human herpesvirus 1, UniProt P10210).
T2 construct: encoding residues 1-288 of HSV-1 UL26 open reading frame and 32 heterologous amino acid; 6xHis (N); made in house
T2 sequence (P10210 1-288): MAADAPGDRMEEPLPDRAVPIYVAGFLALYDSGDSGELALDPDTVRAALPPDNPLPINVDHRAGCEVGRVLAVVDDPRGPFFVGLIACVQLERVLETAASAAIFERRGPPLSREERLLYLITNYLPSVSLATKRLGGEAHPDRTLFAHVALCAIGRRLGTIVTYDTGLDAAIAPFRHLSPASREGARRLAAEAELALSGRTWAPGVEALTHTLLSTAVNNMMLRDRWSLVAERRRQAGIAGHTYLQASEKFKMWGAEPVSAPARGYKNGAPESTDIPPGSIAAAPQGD
The experiment in a line: Enzymatic assay for HSV-1 protease (assemblin) inhibition (FP assay / HPLC assay). Type of test: biochemical. As to the method: Enzymatic Assay for HSV-1 Protease (Assemblin) Inhibition
Assemblin protease activity was determined using fluorescence polarization (FP). The fluorescent substrate was biotin-gamma-aminobutyrate -[…]-DTAF, based on the HSV-1release cleavage site. […] A change in molecular size of fluorescent substrate molecule, which was increased using avidin as a reaction stop reagent, allowed cleavage to be measured by FP. Potential protease inhibitors were dissolved in DMF and then diluted 5-fold in assay buffer. […] The enzyme was diluted to 21.3 ug/mL in assay buffer (1M NaCitrate, 50 mM NaPhosphate, pH 7.4, 100mM NaCl, 20% glycerol, 2 mM TECP) and 48.5 uL were added to each well. Following a 30 minute incubation at room temperature, 10 uL of 62.5 ug/mL substrate were added. After about 90 minute incubation at room temperature, 50 uL of 2 mg/mL avidin in phosphate buffer (50 mM Naphosphate, 100 mM NaCl, pH 7.4) were added to each well. The plates were read by a fluorescence polarization plate reader. Inhibitor potency was determined by comparison with incubations lacking inhibitor.
Assays were performed with the peptide substrate H-His-Thr-Tyr-Leu-Gln-Ala-Ser-Glu-Lys-Phe-Lys-Met-Trp-Gly-NH2 (Bachem). This substrate is a HSV-1-amide UL26 Open Reading Frame (242-255) and is derived from the release site of HSV-1 protease. HSV-1protease cleaves between alanine and serine. The product […] was quantified on HPLC using fluorescence detection of tryptophan residue. Enzyme was diluted to 4.3 ug/mL in assay buffer (1 M NaCitrate, 50 mM NaPhosphate, pH 7.3, 100 mM NaCl, 20% glycerol, 2 mM TCEP) and 48.5 uL were added to the tubes. Potential protease inhibitors were dissolved in DMF and then diluted 10-fold in assay buffer. 6.5 uL of inhibitor solution were added to each tube. Following a 30-minute incubation at room temperature, 10 uL of substrate in phosphate buffer (50 mM Naphosphate, 100 mM NaCl, pH 7.4) were added to all tubes. The final concentration of the substrate in the reaction mixtures was 10 uM. After a 15-minute incubation at room temperature, assays were quenched using 50 uL of 50% TCA. Inhibitor potency was determined by comparison with incubations lacking inhibitor, which under these conditions gave about 20% cleavage of substrate.
Recombinant HSV-1 Protease
HSV-1 protease was purified from baculovirus expressing a DNA construction encoding residues 1-288 of HSV-1 UL26 open reading frame and 32 heterologous amino acid. The construction also encoded six additional histidine residues at the amino terminus of the protease. These additional histidine residues provided an affinity ligand by which the protein was purified using Ni-NTA agarose gel (Qiagen). The purified protease was stored in stock solution (20 mM HEPES buffer, pH 8.5, containing 20% (v/v) glycerol). This stock was diluted with assay buffer to adequate concentration of enzymatic assay.
A specific substrate was synthesized based on the cleavage specificity of HSV-1 protease at the “release site” of the assembly protein (DiIanni, C. L., et al., J. Biol. Chem. 268, 2048, (1993)). The assembly protein release site has the sequence, HTYLQA*SEKFKMWG. The substrate used was biotin-gamma -aminobutyrate-HTYLQA*SERFRIK-DTAF which was prepared by standard peptide synthetic methods such as that described in Bodansky and Bodansky, “The Practice of Peptide Synthesis” (1984), and was stored as a stock solution at 2.5 mg/mL in DMF. This was diluted to 62.5 ug/mL with phosphate buffer (50 mM Naphosphate, […], pH 7.4) just before use.
The substrate was HSV-1-amide UL 26 Open Reading Frame (242-255), obtained from Bachem (Product No. M-2160).
An assay buffer (1 M NaCitrate, 50 mM NaPhosphate, pH 7.4, 100 mM NaCl, 20% glycerol, 2 mM TCEP) was used to dilute stock solutions of enzyme and inhibitors.

Test [3] has as its target T3, Human leukocyte elastase (HLE) (Homo sapiens, UniProt P08246).
T3 construct: purchased CALBIOCHEM
T3 sequence (P08246 30-267): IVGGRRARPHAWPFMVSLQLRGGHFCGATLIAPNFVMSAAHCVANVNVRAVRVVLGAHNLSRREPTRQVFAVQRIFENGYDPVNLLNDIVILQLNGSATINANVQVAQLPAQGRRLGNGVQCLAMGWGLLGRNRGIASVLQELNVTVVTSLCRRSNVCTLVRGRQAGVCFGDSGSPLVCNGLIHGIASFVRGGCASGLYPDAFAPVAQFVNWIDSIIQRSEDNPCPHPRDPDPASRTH
The experiment in a line: Human leukocyte elastase assay. Type of test: biochemical. Particulars: 50 μM compound; 30 minutes pre-incubation. As to the method:
Human Leukocyte Elastase Assay
Human leukocyte elastase (HLE) (CALBIOCHEM) was dissolved in saline at 1 mg/ml and further diluted 1/10 in assay buffer (0.2 M Tris, pH 8.0) before use.
0.75 μl of test compound in DMF (or DMF alone), 50 μl of assay buffer and 50 μl of enzyme were added to 96 well plate, mixed and pre-incubated for 30 minutes at ambient temperature. Reaction was initiated by addition of 50 μl of 2.5 mM methoxysuccinyl-Ala-Ala-Pro-Val-p-nitroanilide (Sigma; 25 mM in DMSO diluted 1/10 in assay buffer before use). The increase in absorbance at 405 nm was monitored for 3 min. with BIO-RAD model 3550 microplate reader.

The mark [4] stands for this setting: recombinant HSV-1 protease, 30 minute pre-incubation at room temperature, FP or HPLC format not stated, read-out: ENZYME IC50.

Read-outs that look alike come from different tables or passages of the source.

For orientation: EC50 means the concentration needed to bring the measured effect to its halfway point. Usually inhibition stands for the relative decrease from the control value, in per cent. As a reminder, the IC50 is the concentration that gives 50% inhibition.

Consider `Cc1c(NC(=O)OC(C)(C)C)ccc2nc(N(CCC#N)C3CC3)oc(=O)c12` [Compound 13, 6-[[(1,1-Dimethylethoxy)carbonyl]amino]-5-methyl-2-[(2-cyanoethyl)-(cyclopropyl)amino]-4H-3,1-benzoxazin-4-one], for which the EC50 with HSV-1 is 7.6 µM. Besides, the inhibition at 50 µM in test [1] is 2.2%; in test [3], 0%. Also, the half-maximal inhibitory concentration (IC50) in test [2] (setting [4]) was found to be 3.9 µM.

For `Cc1cccc2nc(N3CCN(C)CC3)oc(=O)c12` [CC5, reference compound], the EC50 in the test with HSV-1 was above 50 µM. Further, the inhibition at 50 µM in test [1] turned out to be 98%; in test [3] it was 100%. In test [2], the IC50 is 28 µM.

Take `Cc1c(NC(=O)OC(C)(C)C)ccc2nc(N3CC=CCC3)oc(=O)c12` [Compound 8, 6-[[(1,1-Dimethylethoxy)carbonyl]amino]-5-methyl-2-[1-(1,2,3,6-tetrahydro-pyridyl)]-4H-3,1-benzoxazin-4-one]: the EC50 with HSV-1 was found to be 3.3 µM. The inhibition at 50 µM in test [1] and in test [3] was 0% each time. The IC50 in test [2] (setting [4]) amounted to 5 µM.

For `Cc1c(NC(=O)OC(C)(C)C)ccc2nc(N3CCN(C(=O)c4cccs4)CC3)oc(=O)c12` [Compound 17, 6-[[(1,1-Dimethylethoxy)carbonyl]amino]-5-methyl-2-[(4-thenoyl)piperzinyl]-4H-3,1-benzoxazin-4-one], in the test on HSV-1, the EC50 came out at 4.1 µM. For the same compound, the inhibition at 50 µM in test [1] and in test [3] was 0% each time. Besides, the IC50 in test [2] (setting [4]) was determined as 4.2 µM.

On to `Cc1c(NC(=O)OC(C)(C)C)ccc2nc(N(C)Cc3ccccn3)oc(=O)c12` [Compound 18, 6-[[(1-Dimethylethoxy)carbonyl]amino]-5-methyl-2-[methyl(2-pyridylmethyl)-amino]-4H-3,1-benzoxazin-4-one], for which the EC50 in the test with HSV-1 worked out at 15.1 µM. In addition, the inhibition at 50 µM in test [1] amounted to 0%; in test [3] it was 28.7%. The IC50 in test [2] (setting [4]) was found to be 1.5 µM.

`Cc1c(NC(=O)OC(C)(C)C)ccc2nc(N(C)CCc3c[nH]c4ccccc34)oc(=O)c12` [Compound 5, 6-[[(1-Dimethylethoxy)carbonyl]amino]-5-methyl-2-[methyl[2-(3-indolyl)ethyl]amino]-4H-3,1-benzoxazin-4-one]: the concentration for a half-maximal effect (EC50) in the test with HSV-1 turned out to be 3.2 µM. Further, the values for the inhibition at 50 µM in test [1] and in test [3] were 13.1% and 0%, respectively. The IC50 in test [2] (setting [4]) was found to be 3.5 µM.

On to `CCN(CC)c1nc2cccc(C)c2c(=O)o1` [CC1, reference compound], for which the IC50 in test [2] (setting [4]) is 20 µM.

With `Cc1cccc2nc(N(C)CCN3CCOCC3)oc(=O)c12` [CC6, reference compound], the concentration for a half-maximal effect (EC50) with HSV-1 was above 50 µM. In addition, the inhibition at 50 µM in test [1] turned out to be 97%; in test [3], 99%. The IC50 in test [2] (setting [4]) was 11.8 µM.

As to `CC(=O)N1CCN(c2nc3ccc(NC(=O)OC(C)(C)C)c(C)c3c(=O)o2)CC1` [Compound 16, 6-[[(1,1-Dimethylethoxy)carbonyl]amino]-5-methyl-2-[4-(1-acetylpiperadinyl)]-4H-3,1-benzoxazin-4-one], the EC50 with HSV-1 is 3.6 µM. In addition, the values for the inhibition at 50 µM in test [1] and in test [3] were 0% and 1.4%, respectively. Moreover, the IC50 in test [2] (setting [4]) is 2.3 µM.

As for `Cc1c(NC(=O)OC(C)(C)C)ccc2nc(N3CCN(C(=O)c4ccco4)CC3)oc(=O)c12` [Compound 14], in the test on HSV-1, the EC50 turned out to be 1.6 µM. Further, the results for the inhibition at 50 µM in test [1] and in test [3] were 0% and 46.3%, respectively. For the same compound, in test [2] (setting [4]), the IC50 was 2 µM.

On to `Cc1c(NC(=O)OC(C)(C)C)ccc2nc(N(C)C(C)C)oc(=O)c12` [Compound 10, 6-[[(1,1-Dimethylethoxy)carbonyl]amino]-5-methyl-2-[isopropyl(methyl)amino]-4H-3,1-benzoxazin-4-one], for which the EC50 in the test with HSV-1 amounted to 3.3 µM. In addition, the inhibition at 50 µM in test [1] and in test [3] was 0% throughout. For the same compound, the IC50 in test [2] (setting [4]) was found to be 7.8 µM.

Regarding `Cc1cccc2nc(N(C)Cc3ccccc3)oc(=O)c12` [CC2, reference compound], the 50% effective concentration (EC50) in the test with HSV-1 amounted to 7.5 µM. For the same compound, the inhibition at 50 µM in test [1] and in test [3] was 101% each time. For the same compound, the IC50 in test [2] (setting [4]) amounted to 3.2 µM.

As for `Cc1c(Br)ccc2nc(N(C)Cc3ccccc3)oc(=O)c12` [CC4, reference compound], in the test on HSV-1, the EC50 was 15 µM. The values for the inhibition at 50 µM in test [1] and in test [3] were 102% and 98%, respectively.

For the origin of these results see US6806269B1, “2-Amino-benzoxazinones for the treatment of herpes simplex virus” (G. D. Searle & Cop, priority 1999, dated 2004).
